Here are results for eight molecules from US20260327264A1, “PEPTIDE INHIBITORS OF INTERLEUKIN-23 RECEPTOR” (Zealand Pharma A/S, priority 2023, published 2026).

Each structure is given as a SMILES string. Entries after “also recorded” stand apart in the source; their conditions may differ. Where two headings read alike, the source gives them in different places. *1 amine or outer side, *2 acyl side, *3 side chain or, on linkers, in order; H or OH if unused. Where a SMILES comes first, the peptide text is derived from it. Bridges are numbered along the chain shown (N, C = ends). [ ]: non-standard residue; d: D form. 2Nal = N[C@@H](Cc1ccc2ccccc2c1)C(=O)O; AEF = NCCOc1ccc(C[C@H](N)C(=O)O)cc1; X1 = O=C(Cc1ccc(CN[*:1])cc1)[*:2]; 3Pal = N[C@@H](Cc1cccnc1)C(=O)O; αMeL = CC(C)C[C@](C)(N)C(=O)O; Dab = NCC[C@H](N)C(=O)O

A word on the IC50: it is the concentration that gives 50% inhibition.

One series addresses T1, human IL-23R (Homo sapiens, UniProt Q5VWK5).
T1 construct: Nanoluc luciferase (Nluc); secretion signal encoded by the plasmid (not specified); expressed in transfected cells; crude membranes used in the assay
T1 sequence (Q5VWK5 22-629): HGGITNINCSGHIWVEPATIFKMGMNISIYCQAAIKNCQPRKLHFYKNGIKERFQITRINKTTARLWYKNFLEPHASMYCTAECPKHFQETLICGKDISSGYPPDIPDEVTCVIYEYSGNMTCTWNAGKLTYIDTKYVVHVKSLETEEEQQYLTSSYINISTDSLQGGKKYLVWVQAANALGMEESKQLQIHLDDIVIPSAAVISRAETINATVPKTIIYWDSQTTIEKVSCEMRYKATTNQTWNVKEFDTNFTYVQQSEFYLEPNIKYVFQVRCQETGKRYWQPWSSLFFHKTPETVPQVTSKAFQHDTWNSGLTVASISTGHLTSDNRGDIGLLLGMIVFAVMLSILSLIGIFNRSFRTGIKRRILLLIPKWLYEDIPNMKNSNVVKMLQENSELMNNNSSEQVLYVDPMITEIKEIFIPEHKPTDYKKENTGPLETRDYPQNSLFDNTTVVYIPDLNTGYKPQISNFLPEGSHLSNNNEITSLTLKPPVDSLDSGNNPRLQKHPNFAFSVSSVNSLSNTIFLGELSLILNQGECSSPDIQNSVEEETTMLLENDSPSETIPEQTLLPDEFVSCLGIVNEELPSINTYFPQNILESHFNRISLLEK
Put plainly: Binding assay: displacement of fluorophore (TAMRA)-labelled reference compound from human IL-23R (BRET, Nluc-IL23R fusion protein membranes). To be noted: for Emax: read-out: % displacement (hIL-23R binding). For orientation: BRET reads energy transfer from a luciferase to a nearby fluorophore.

In series [1] the test system is IL-23 mediated STAT3 signalling (DB cells). In words: Functional inhibition of IL-23 mediated STAT3 signalling (phospho-STAT3 Tyr705) in DB cells. Type of series: cell-based, human. Particulars: for hIL-23 (pSTAT3) antagonist % inhibition: Table 3-2, maximal inhibitory response, EC80 of hIL-23. An outline of the steps: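 Phospho-STAT3 in lysed DB cells quantified by MSD kit after 90 min exposure to EC80 human IL-23, following 15 min compound pretreatment (37° C, 5% CO2). IC50 and maximal inhibition derived from curves normalized between IL-23-only and buffer-only controls.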

Series [2] in a line: Peptide stability in simulated gastric fluid (SGF). Type of series: in vitro ADME. To be noted: pig, pH 1.2, pepsin, 37° C. Here is the method:
(§1) SGF and SIF were prepared based on the United States Pharmacopeia specifications (Test Solutions, United States Pharmacopeia 35, NF 30, 2012). SGF was prepared by dissolving sodium chloride (0.2 g) in 50 mL of water. A volume of 0.7 mL of 10 M HCl was added to adjust the pH of the solution to 1.2 and the volume made up to 100 mL with water. 64 mg porcine pepsin (P7125, Sigma Aldrich) was gently dissolved into 20 mL preheated (37° C.) solution (3.2 g/L) immediately prior to the incubation. SIF was prepared by dissolving monobasic potassium phosphate (0.68 g) in 50 mL of water and adjusting the pH to 6.8 with 1 M NaOH. The volume was subsequently made up to 100 mL with water. 200 mg porcine pancreatin (P1625, Sigma Aldrich) was gently dissolved into 20 mL preheated (37° C.) solution (10 g/L) immediately prior to the incubation.
(§2) To initiate the incubations, 20 μL of peptide stock solution in 50% v/v isopropanol was deposited at the bottom of a well plate and 580 μL matrix solution was added to give a final substrate concentration of 10 μM. The incubation was performed at 37° C. with gentle shaking. 70 μL aliquots were removed at 0, 1 and 4 hours and quenched into 210 μL ice-cold precipitant solution (95% v/v acetonitrile with 0.1% v/v formic acid). After the last timepoint, the sampling plate was mixed for 10 min on a shaking table and centrifuged 10 min at 2200 g. 70 μL resulting supernatant was diluted with 150 μL water, mixed and centrifugated before analysis by liquid chromatography high resolution mass spectrometry. The zero sample was reinjected after the 4-hour sample to confirm that no drift in instrument sensitivity had occurred during the run. Percent remaining at each timepoint was calculated relative to timepoint zero based on absolute peak areas.
Compounds with a SGF stability (after 4 h) above 70% are considered highly SGF stable. Compounds with a SGF stability (after 4 h) between 30-70% (including 30% and 70%) are considered moderately SGF stable. Compounds with a SGF stability (after 4 h) below 30% are considered SGF unstable. SGF stability values above 100% are due to assay uncertainty and indicate the compound has not degraded.

Series [3] in a line: Peptide stability in simulated intestinal fluid (SIF). Type of series: in vitro ADME. To be noted: for remaining at 1 h, 10 µM / remaining at 4 h, 10 µM: pig. Here is the method:
as §1, §2
Compounds with a SIF stability (after 4 h) above 70% are considered highly SIF stable. Compounds with a SIF stability (after 4 h) between 30-70% (including 30% and 70%) are considered moderately SIF stable. Compounds with a SIF stability (after 4 h) below 30% are considered SIF unstable. SIF stability values above 100% are due to assay uncertainty and indicate the compound has not degraded.

Setting [4] is: EC80 of hIL-23, read-out: IC50 (pSTAT3).
The mark [5] stands for this setting: Table 3-2, EC80 of hIL-23, read-out: hIL-23 (pSTAT3) antagonist IC50.
Setting [6] is: simulated intestinal fluid, SIF, pH 6.8, pancreatin, 37° C.

Turning to `CC(C)C[C@]1(C)NC(=O)[C@H](Cc2ccc3ccccc3c2)NC(=O)[C@H](Cc2ccc(OCCN)cc2)NC(=O)[C@@H]2CCNC(=O)CC[C@H](NC(=O)[C@H](CO)NC(=O)Cc3ccc(cc3)CNC(=O)CC[C@@H](C(=O)N[C@@H](CCN)C(=O)N[C@@](C)(Cc3cccnc3)C(N)=O)NC1=O)C(=O)N[C@@H](Cc1c[nH]c3ccccc13)C(=O)N[C@@H](CCC(N)=O)C(=O)N2` [Compound 3, [4-Aminomethyl-phenylacetyl](1c)*SE(2c)WQ[Dab](2c)[Y(2-aminoethoxy)][2-Nal][2-Me-Leu]E(1c)[Dab][2-Me-3-(3-Pyridyl)-Ala]-[NH2]], the Emax at human IL-23R was 99%. The IC50 in series [1] (setting [4]) and in series [1] (setting [5]) was 1.7 nM throughout. The “hIL-23 (pSTAT3) antagonist % inhibition” value in series [1] amounted to 98%. The share remaining at 4 h, 10 µM in series [2] is 104%.

Consider `CC(C)C[C@]1(C)NC(=O)[C@H](Cc2ccc3ccccc3c2)NC(=O)[C@H](Cc2ccc(OCCN)cc2)NC(=O)[C@@H]2CCNC(=O)CC[C@H](NC(=O)[C@H](CO)NC(=O)Cc3ccc(cc3)CNC(=O)CC[C@@H](C(=O)N[C@@H](CCN)C(=O)N(C)[C@@H](Cc3cccnc3)C(N)=O)NC1=O)C(=O)N[C@@H](Cc1c[nH]c3ccccc13)C(=O)N[C@@H](CCC(N)=O)C(=O)N2` [Compound 4, [4-Aminomethyl-phenylacetyl](1c)*SE(2c)WQ[Dab](2c)[Y(2-aminoethoxy)][2-Nal][2-Me-Leu]E(1c)[Dab][N—Me-3-(3-Pyridyl)-Ala]-[NH2]], for which the values for the IC50 (on human IL-23R; in series [1] (setting [4]); in series [1] (setting [5])) were 0.17 nM, 6.5 nM and 6.5 nM, respectively. Further, the Emax at human IL-23R was determined as 111%. The “hIL-23 (pSTAT3) antagonist % inhibition” value in series [1] came out at 100%. Also, in series [2], the fraction remaining at 4 h, 10 µM was 103%.

On to `CC(C)C[C@]1(C)NC(=O)[C@H](Cc2ccc3ccccc3c2)NC(=O)[C@H](Cc2ccc(OCCN)cc2)NC(=O)[C@@H]2CCNC(=O)CC[C@H](NC(=O)[C@H](CO)NC(=O)Cc3ccc(cc3)CNC(=O)CC[C@@H](C(=O)N[C@@H](CCN)C(=O)NCCc3cccnc3)NC1=O)C(=O)N[C@@H](Cc1c[nH]c3ccccc13)C(=O)N[C@@H](CCC(N)=O)C(=O)N2` [Compound 7, [4-Aminomethyl-phenylacetyl](1c)*SE(2c)WQ[Dab](2c)[Y(2-aminoethoxy)][2-Nal][2-Me-Leu]E(1c)[Dab]-[NH-(2-(pyridin-3-yl)ethyl)]], for which the “potency of the compound (in words)” value on human IL-23R (potency against IL-23R) is on record as “more potent than Compound 6; also recorded: particularly potent”. Besides, the IC50 in series [1] (setting [4]) and in series [1] (setting [5]) was 0.13 nM throughout. For the same molecule, the “hIL-23 (pSTAT3) antagonist % inhibition” value in series [1] is 98%. Further, in series [3] (setting [6]), the share remaining at 1 h, 10 µM was 103%. In addition, the share remaining at 4 h, 10 µM in series [3] (37 °C, simulated intestinal fluid pH 6.8 with porcine pancreatin, read-out: SIF (% after 4 h), intact peptide remaining) was 130%. For the same molecule, the “SIF stability (in words)” value in series [3] (simulated intestinal fluid) was “SIF stable”.

`CC(C)C[C@]1(C)NC(=O)[C@H](Cc2ccc3ccccc3c2)NC(=O)[C@H](Cc2ccc(OCCN)cc2)NC(=O)[C@@H]2CCNC(=O)CC[C@H](NC(=O)[C@H](CO)NC(=O)Cc3ccc(cc3)CNC(=O)CC[C@@H](C(=O)N[C@@H](CCN)C(=O)N[C@@H](Cc3c[nH]cn3)C(=O)N[C@@H](Cc3cccnc3)C(N)=O)NC1=O)C(=O)N[C@@H](Cc1c[nH]c3ccccc13)C(=O)N[C@@H](CCC(N)=O)C(=O)N2` [Compound 12, [4-Aminomethyl-phenylacetyl](1c)*SE(2c)WQ[Dab](2c)[Y(2-aminoethoxy)][2-Nal][2-Me-Leu]E(1c)[Dab]H[3-(3-Pyridyl)-Ala]-[NH2]] ([X1]SEWQ[Dab][AEF][2Nal][αMeL]E[Dab]H[3Pal]-NH2; lactam 3-6, N-10): the Emax at human IL-23R was 104%. In addition, the IC50 in series [1] (setting [5]) amounted to 3.5 nM. For the same molecule, the “hIL-23 (pSTAT3) antagonist % inhibition” value in series [1] stood at 100%. Further, the amount remaining at 1 h, 10 µM in series [2] (1 h) was 94%.

With `CNC(=O)[C@H](Cc1cccnc1)NC(=O)[C@H](Cc1c[nH]cn1)NC(=O)[C@@H]1CCC(=O)NCc2ccc(cc2)CC(=O)N[C@@H](CO)C(=O)N[C@H]2CCC(=O)NCC[C@H](NC(=O)[C@H](CCC(N)=O)NC(=O)[C@H](Cc3c[nH]c4ccccc34)NC2=O)C(=O)N[C@@H](Cc2ccc(OCCN)cc2)C(=O)N[C@@H](Cc2ccc3ccccc3c2)C(=O)N[C@@](C)(CC(C)C)C(=O)N1` [Compound 34, [4-Aminomethyl-phenylacetyl](1c)*SE(2c)WQ[Dab](2c)[Y(2-aminoethoxy)][2-Nal][2-Me-Leu]E(1c)H[3-(3-Pyridyl)-Ala]-[NHMe]] ([X1]SEWQ[Dab][AEF][2Nal][αMeL]EH[3Pal]-NHMe; lactam 3-6, N-10), the Emax at human IL-23R is 90%. In series [1], the “hIL-23 (pSTAT3) antagonist % inhibition” value was 102%. Moreover, the amount remaining at 4 h, 10 µM in series [2] was 95%.

Turning to `CNC(=O)[C@H](Cc1cccnc1)NC(=O)[C@H](COC)NC(=O)[C@@H]1CCC(=O)NCc2ccc(cc2)CC(=O)N[C@@H](CO)C(=O)N[C@H]2CCC(=O)NCC[C@H](NC(=O)[C@H](CCC(N)=O)NC(=O)[C@H](Cc3c[nH]c4ccccc34)NC2=O)C(=O)N[C@@H](Cc2ccc(OCCN)cc2)C(=O)N[C@@H](Cc2ccc3ccccc3c2)C(=O)N[C@@](C)(CC(C)C)C(=O)N1` [Compound 37, [4-Aminomethyl-phenylacetyl](1c)*SE(2c)WQ[Dab](2c)[Y(2-aminoethoxy)][2-Nal][2-Me-Leu]E(1c)[Ser(OMe)][3-(3-Pyridyl)-Ala]-[NHMe]], the Emax on human IL-23R came to 95%. Further, in series [1] (setting [5]), the half-maximal inhibitory concentration (IC50) was found to be 0.069 nM. Further, the “hIL-23 (pSTAT3) antagonist % inhibition” value in series [1] is recorded as 100%. In series [2], the amount remaining at 4 h, 10 µM was 102%.

Take `CNC(=O)[C@H](Cc1cccnc1)NC(=O)[C@H](CCN)NC(=O)[C@@H]1CCC(=O)NCc2ccc(cc2)CC(=O)N[C@@H](C)C(=O)N[C@H]2CCC(=O)NCC[C@H](NC(=O)[C@H](CCC(N)=O)NC(=O)[C@H](Cc3c[nH]c4ccccc34)NC2=O)C(=O)N[C@@H](CCc2ccccc2)C(=O)N[C@@H](Cc2ccc3ccccc3c2)C(=O)NC(C)(C)C(=O)N1` [Compound 41, [4-Aminomethyl-phenylacetyl](1c)*AE(2c)WQ[Dab](2c)[hPhe][2-Nal][Aib]E(1c)[Dab][3-(3-Pyridyl)-Ala]-[NHMe]]: the Emax on human IL-23R worked out at 104%. For the same molecule, the fraction remaining at 4 h, 10 µM in series [2] is 102%.

In the case of `CNC(=O)[C@H](Cc1cccnc1)NC(=O)[C@H](CCN)NC(=O)[C@@H]1CCC(=O)NCc2ccc(cc2)CC(=O)N[C@@H](C)C(=O)N[C@H]2CCC(=O)NCC[C@H](NC(=O)[C@H](CCC(N)=O)NC(=O)[C@H](Cc3c[nH]c4ccccc34)NC2=O)C(=O)N[C@@H](Cc2ccc(OCCN)cc2)C(=O)N[C@@H](Cc2c[nH]c3ncccc23)C(=O)NC(C)(C)C(=O)N1` [Compound 44, [4-Aminomethyl-phenylacetyl](1c)*AE(2c)WQ[Dab](2c)[Y(2-aminoethoxy)][7-AzaTrp][Aib]E(1c)[Dab][3-(3-Pyridyl)-Ala]-[NHMe]], the fraction remaining at 1 h, 10 µM in series [3] (setting [6]) is 78%. In addition, in series [3] (simulated intestinal fluid, SIF, pH 6.8, pancreatin, 37° C., read-out: SIF (% remaining 4 h)), the share remaining at 4 h, 10 µM was 91%.
